The structures appear in SMILES notation. Where a name gives a salt, the structure may show the parent alone.

The first assay has as its system Acinetobacter baumannii ATCC17961. The assay is described as follows: Antimicrobial susceptibility testing: 90% growth inhibitory concentration (IC90) determination in Iso-Sensitest broth, OD600 growth. Type of assay: cell-based. The following applies: Acinetobacter baumannii, ATCC17961, 16 h, read-out: A. baumannii ATCC 17961 IC90 (uM), strain ATCC 17961, OD600 growth over 16 h. The method in brief: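 Twofold compound dilutions (e.g. 50 to 0.097 μM final) in Iso-Sensitest broth with ~5×10^(5) CFU/ml, 35±2 °C. OD600 read every 20 min over 16 h; IC90 from growth inhibition during logarithmic phase.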
As to `CCc1cc(Nc2nccn3c(-c4cn(CC=C(C)C)nc4C(F)(F)F)cnc23)ccc1C(=O)NCCOCCN` [Example 614, N-(2-(2-aminoethoxy)ethyl)-2-ethyl-4-((3-(1-(3-methylbut-2-en-1-yl)-3-(trifluoromethyl)-1H-pyrazol-4-yl)imidazo[1,2-a]pyrazin-8-yl)amino)benzamide formate], the IC90 is 0.11 µM. Regarding `CCc1cc(Nc2nccn3c(-c4c[nH]nc4C(F)(F)F)cnc23)ccc1C(=O)NCCNC(=O)CCCN` [Example 217, N-[2-(4-aminobutanoylamino)ethyl]-2-ethyl-4-[[3-[3-(trifluoromethyl)-1H-pyrazol-4-yl]imidazo[1,2-a]pyrazin-8-yl]amino]benzamide formate], the IC90 stood at 0.543 µM. Same read-out and setting: with `CCOC(=O)Cn1cc(-c2cnc3c(Nc4ccc(C(=O)NCCOCCN)c(CC)c4)nccn23)c(C(F)(F)F)n1` [Example 310, ethyl 2-[4-[8-[4-[2-(2-aminoethoxy)ethylcarbamoyl]-3-ethylanilino]imidazo [1,2-a]pyrazin-3-yl]-3-(trifluoromethyl)pyrazol-1-yl]acetate formate] the figure was 0.719 µM; with `N#CCn1cc(-c2cnc3c(Nc4ccc(C(=O)N5CCN(C(=O)N[C@@H]6CCNC6)CC5)c(Cl)c4)nccn23)c(C(F)(F)F)n1` [Example 288, 4-[2-chloro-4-[[3-[1-(cyanomethyl)-3-(trifluoromethyl)pyrazol-4-yl]imidazo[1,2-a]pyrazin-8-yl]amino]benzoyl]-N-[(3R)-pyrrolidin-3-yl]piperazine-1-carboxamide formate], 0.233 µM. The same measure, in the same setting: with `CCc1cc(Nc2nccn3c(-c4cn(CC#N)nc4C(F)(F)F)cnc23)ccc1C(=O)NCC(=O)N1CCCC1CN` (stereo not drawn) [Example 510, N-[2-[2-(aminomethyl)pyrrolidin-1-yl]-2-oxo-ethyl]-4-[[3-[1-(cyanomethyl)-3-(trifluoromethyl)pyrazol-4-yl]imidazo[1,2-a]pyrazin-8-yl]amino]-2-ethyl-benzamide formate] the figure was 0.347 µM. The same measure, in the same setting: with `O=C(NCCNC(=O)[C@@H]1C[C@@H](O)CN1)c1ccc(Nc2nccn3c(-c4c[nH]nc4C(F)(F)F)cnc23)cc1Cl` [Example 433, (2S,4R)-N-[2-[[2-chloro-4-[[3-[3-(trifluoromethyl)-1H-pyrazol-4-yl]imidazo[1,2-a]pyrazin-8-yl]amino]benzoyl]amino]ethyl]-4-hydroxypyrrolidine-2-carboxamide formate] the figure was 2.66 µM; with `N[C@@H]1CC[C@@H](C(=O)N2CCN(C(=O)c3ccc(Nc4nccn5c(-c6cn(CC(F)F)nc6C(F)(F)F)cnc45)cc3Cl)CC2)C1` [Example 574, (4-((1R,3R)-3-aminocyclopentane-1-carbonyl)piperazin-1-yl)(2-chloro-4-((3-(1-(2,2-difluoroethyl)-3-(trifluoromethyl)-1H-pyrazol-4-yl)imidazo[1,2-a]pyrazin-8-yl)amino)phenyl)methanone formate], 0.242 µM; with `CCc1cc(Nc2nccn3c(-c4cn(CC#N)nc4C(F)(F)F)cnc23)ccc1C(=O)NCC(=O)N1CC(N)C1` [Example 716, N-[2-(3-aminoazetidin-1-yl)-2-oxo-ethyl]-4-[[3-[1-(cyanomethyl)-3-(trifluoromethyl)pyrazol-4-yl]imidazo[1,2-a]pyrazin-8-yl]amino]-2-ethyl-benzamide formate], 0.426 µM.

Still in this assay, the particulars now being: Acinetobacter baumannii, ATCC17961, 16 h, strain ATCC 17961, OD600 growth over 16 h, read-out: A. baumannii ATCC 17961 IC90.
`CCc1cc(Nc2nccn3c(-c4cn(CC#N)nc4C(F)(F)F)cnc23)ccc1C(=O)NCC(=O)N1CC[C@@H](N)C1` [Example 504, N-[2-[(3R)-3-aminopyrrolidin-1-yl]-2-oxo-ethyl]-4-[[3-[1-(cyanomethyl)-3-(trifluoromethyl)pyrazol-4-yl]imidazo[1,2-a]pyrazin-8-yl]amino]-2-ethyl-benzamide formate]: the IC90 was found to be 0.238 µM. Same read-out and setting: with `C=CCn1cc(-c2cnc3c(Nc4ccc(C(=O)NCCOCCN)c(CC)c4)nccn23)c(C(F)F)n1` [Example 121, N-[2-(2-aminoethoxy)ethyl]-4-[[3-[3-(difluoromethyl)-1-prop-2-enylpyrazol-4-yl]imidazo[1,2-a]pyrazin-8-yl]amino]-2-ethylbenzamide] the figure was 0.201 µM; with `NC1CC(NC(=O)CNC(=O)c2ccc(Nc3nccn4c(-c5c[nH]nc5C(F)(F)F)cnc34)cc2Cl)C1` (stereo not drawn) [Example 138, N-[2-[(3-aminocyclobutyl)amino]-2-oxoethyl]-2-chloro-4-[[3-[3-(trifluoromethyl)-1H-pyrazol-4-yl]imidazo[1,2-a]pyrazin-8-yl]amino]benzamide], 2.01 µM. In the case of `N#CCn1cc(-c2cnc3c(Nc4ccc(C(=O)NCCOCCN)c(F)c4)nccn23)c(C(F)(F)F)n1` [Example 810, N-(2-(2-aminoethoxy)ethyl)-4-((3-(1-(cyanomethyl)-3-(trifluoromethyl)-1H-pyrazol-4-yl)imrdazo[1,2-a]pyrazin-8-yl)amino)-2-fluorobenzamide hydrochloride], the IC90 came to 0.25 µM.

Consider `CCc1cc(Nc2nccn3c(-c4cn(CC(F)F)nc4C(F)(F)F)cnc23)ccc1C(=O)NCCNC(=O)[C@H]1CC[C@H](N)C1` [Example 492, N-(2-((1S,3S)-3-aminocyclopentane-1-carboxamido)ethyl)-4-((3-(1-(2,2-difluoroethyl)-3-(trifluoromethyl)-1H-pyrazol-4-yl)imidazo[1,2-a]pyrazin-8-yl)amino)-2-ethylbenzamide formate], for which the IC90 came to 0.2 µM.

For `CCc1cc(Nc2nccn3c(-c4cn(CC(F)F)nc4C(F)(F)F)cnc23)ccc1C(=O)NCCNC(=O)N1CC[C@H](N)C1` [Example 489, (S)-3-amino-N-(2-(4-((3-(1-(2,2-difluoroethyl)-3-(trifluoromethyl)-1H-pyrazol-4-yl)imidazo[1,2-a]pyrazin-8-yl)amino)-2-ethylbenzamido)ethyl)pyrrolidine-1-carboxamide formate], the IC90 is 0.184 µM. On the same count and under the same terms, the result for `Cc1cc(Nc2nccn3c(-c4cn(CCF)nc4C(F)(F)F)cnc23)cc(F)c1C(=O)N1CCN(C(=O)[C@H]2CC[C@H](O)N2)CC1` [Example 714, (4-(2-fluoro-4-((3-(1-(2-fluoroethyl)-3-(trifluoromethyl)-1H-pyrazol-4-yl)imidazo[1,2-a]pyrazin-8-yl)amino)-6-methylbenzoyl)piperazin-1-yl)((2R,5S)-5-hydroxypyrrolidin-2-yl)methanone] reads 0.422 µM; that for `C#CCn1cc(-c2cnc3c(Nc4ccc(C(=O)NCC)c(CC)c4)nccn23)c(C(F)(F)F)n1` [Example 112, N,2-diethyl-4-[[3-[1-prop-2-ynyl-3-(trifluoromethyl)pyrazol-4-yl]imidazo[1,2-a]pyrazin-8-yl]amino]benzamide], 0.231 µM; that for `Cc1cc(Nc2nccn3c(-c4cn(CC#N)nc4C(F)(F)F)cnc23)ccc1C(=O)NCCOCCN` [Example 262, N-[2-(2-aminoethoxy)ethyl]-4-[[3-[1-(cyanomethyl)-3-(trifluoromethyl)pyrazol-4-yl]imidazo[1,2-a]pyrazin-8-yl]amino]-2-methylbenzamide], 1.1 µM.

Still in this assay, the particulars now being: strain ATCC 17961, OD600 growth over 16 h, read-out: A. baumannii ATCC 17961 IC90.
Regarding `NCCCC[C@H](N)C(=O)NCCCNC(=O)c1ccc(Nc2nccn3c(-c4c[nH]nc4C(F)(F)F)cnc23)cc1Cl` [Example 345, 2-chloro-N-[3-[[(2S)-2,6-diaminohexanoyl]amino]propyl]-4-[[3-[3-(trifluoromethyl)-1H-pyrazol-4-yl]imidazo[1,2-a]pyrazin-8-yl]amino]benzamide foramate], the IC90 is 1.22 µM.

In general, IC90 refers to the concentration needed for an effect of 90%.

The values above are taken from US20230203043A1, “NOVEL IMIDAZOPYRAZINE DERIVATIVES” (Hoffmann-La Roche Inc., priority 2020, published 2023).
